Patent publication US20060263802A1 (priority 2003, published 2006)

Key:
Format in all cases: binding
[1] = tested on: human monoclonal antibody CR57
[2] = tested on: human monoclonal antibody CR57; remark: listed apart in the source
[3] = tested on: human monoclonal antibody CRJA
[4] = tested on: human monoclonal antibody CRJA; remark: listed apart in the source
[5] = tested on: human monoclonal antibody CRJB
[6] = tested on: human monoclonal antibody CRJB; remark: listed apart in the source

Sequence	Binding of CR57 to linear peptide (PEPSCAN-ELISA signal) [1]	Binding of CR57 (10 μg/ml) to looped/cyclic peptide (PEPSCAN-ELISA signal) [2]	Binding of CRJA to linear peptide (PEPSCAN-ELISA signal) [3]	Binding of CRJA (10 μg/ml) to looped/cyclic peptide (PEPSCAN-ELISA signal) [4]	Binding of CRJB (10 μg/ml) to looped/cyclic peptide (PEPSCAN-ELISA signal) [5]	Binding of CRJB to linear peptide (PEPSCAN-ELISA signal) [6]	Binding of CR57 (10 μg/ml) to looped/cyclic peptide (PEPSCAN-ELISA) [2]	Binding of CRJA (10 μg/ml) to looped/cyclic peptide (PEPSCAN-ELISA) [4]	Binding of CRJB (10 μg/ml) to looped/cyclic peptide (PEPSCAN-ELISA) [5]	Binding of human monoclonal antibody CR57 to linear peptide (PEPSCAN-ELISA signal) [1]	Binding of CR57 to looped/cyclic peptide (PEPSCAN-ELISA signal) [2]	Binding of human monoclonal antibody CRJA to linear peptide (PEPSCAN-ELISA signal) [3]	Binding of CRJA to looped/cyclic peptide (PEPSCAN-ELISA signal) [4]	Binding of CRJB to looped/cyclic peptide (PEPSCAN-ELISA signal) [5]	Binding of human monoclonal antibody CRJB to linear peptide (PEPSCAN-ELISA signal) [6]	binding of antibody CRJA to looped/cyclic peptide (PEPSCAN OD) [4]
CTGVVTEAENYTNFV	76	92	89	101	85	123										
CTNLSGFSYMELKVG	47	70	84	79	96	110										
DACRAAYNWKMAGDP	84	133	83	110	77	113										
DAHYKSVRTWNEILP	59		107			121	90	98	100							
DALESIMTTKSVSFR	104		105			120	127	110	127							
DEAEDFVEVHLPDVH										68	89	105	98	104	136	
DEGCTNLSGFSYMEL	1	1	54	57	60	23										
DEIEHLVVEELVRKR	94		90			123	113	106	106							
DERGLYKSLKGACKL	90		76			119	152	85	123							
DFRSDEIEHLVVEEL	99		86			103	127	93	58							
DFVEVHLPDVHNQVS										96	113	92	113	92	141	
DGDEAEDFVEVHLPD										85	71	97	71	102	123	
DGNVLIPEMQSSLLQ	123		93			134	114	107	104							
DGTWVAMQTSNETKW	69		63			114	56	45	58							
DIFTNSRGKRASKGS	70	80	114	99	82	107										
DIHHLSCPNNLVVED	38	52	61	62	48	96										
DKLGPWSPIDIHHLS	62	104	78	89	70	103										
DLDPYDRSLHSRVFP	111	90	107	92	68	152										
DPRYEESLHNPYPDY	57	76	92	91	65	110										
DPSTVFKDGDEAEDF										98	134	132	110	110	147	
DPYDRSLHSRVFPSG	90	106	92	186	71	120										clearly bound
DQLVNLHDFRSDEIE	54		88			117	46	63	27							
DRSLHSRVFPSGKCS	98	91	187	99	100	142										
DVHNQVSGVDLGLPN										117	120	124	99	113	133	
DYRWLRTVKTTKESL	54	46	55	45	49	111										
DYTIWMPENPRLGMS	93	83	106	86	66	127										
EADAHYKSVRTWNEI	58		79			97	78	63	76							
EAEDFVEVHLPDVHN										76	98	97	105	93	117	
EAENYTNFVGYVTTT	69	55	62	54	60	117										
